IC50 data for 27 compounds are collected here from US12275731B2, “Azaindole inhibitors of wild-type and mutant forms of LRRK2” (DANA-FARBER CANCER INSTITUTE, INC., priority 2018, dated 2025).

What is called IC50 is the concentration needed to halve the response being measured. By pIC50 is commonly meant −log10 of the IC50, conventionally taken in molar units.

The target in one assay is T1, LRRK2 WT enzyme (Homo sapiens, UniProt Q5S007).
T1 construct: purchased Thermo Fisher Scientific PR8604B
Description: LRRK2 wild type kinase inhibition assay (ADP-Glo). It counts as biochemical. The settings on record: for IC50: Table 1, read-out: IC50 (nM) LRRK2 wt; for pIC50: Table 2, class symbols, read-out: Enzyme activity against LRRK2 WT (IC50). The procedure: (§1) IC50 experiments were performed for inventive compounds. An exemplary kit to perform this assay includes the Adapta™ Screening Protocol and Assay Conditions by Invitrogen™ (Fisher Scientific™, Catalog No. PV5099).
(§2) All LRRK2 kinase inhibition assays were conducted by using Promega ADP-Glo™ Kinase assay systems (Catalog number; V4475). Inhibitors were tested with 12 concentrations over a 5-fold serial dilution series (50 μM, 10 μM, 2 μM, 400 nM, 80 nM, 16 nM, 3.2 nM, […]) and PF06447475 as positive control. For the LRRK2 wild type (WT) enzyme assay, each inhibitor was mixed with 0.2 μg/μL of substrate (LRRKtide, SignalChem, Richmond, BC, Canada), […] (Invitrogen™, Carlsbad, CA), 24 ng of LRRK2 WT enzyme (Thermo Fisher Scientific, PR8604B) in 384-well plate. For LRRK G2019S, each compound was mixed with 0.2 μg/μL of substrate, […], 16 ng of LRRK2 G2019S enzyme (SignalChem, L10-12GG). All samples were diluted with kinase reaction buffer (40 mmol/L TrisHCl, 10 mmol/L MgCl2, and 0.1 μg/μL BSA (bovine serum albumin)). After 2 hours at 25° C., ADP-Glo™ (Promega, Madison, WI) reagent was added and the samples were incubated at rt for 40 min. Finally, Kinase Detection Reagent was added and the resulting mixtures were allowed to react at rt for 10 min. Luminescence signals were detected using Synergy™ Neo2 microplate reader (Bio-Tek). Compound inhibition curve was fitted using Graphpad Prism 8.0 software.

The target of another assay is LRRK2(G2019S) (Homo sapiens, UniProt Q5S007, G2019S). The assay is described as follows: LRRK2 G2019S kinase inhibition assay (ADP-Glo). It counts as biochemical. Also on record: purchased SignalChem L10-12GG. The settings on record: for IC50: Table 1, read-out: IC50 (nM) LRRK2 G2019S; for pIC50: Table 2, class symbols, read-out: Enzyme activity against LRRK2 G2019S (IC50). How it is done:
as §1, §2
For orientation: ADP-Glo first removes unused ATP, then detects ADP through luciferase.

pIC50: −log10 of the molar value. Like-named read-outs stand apart in the source and are kept apart here.

Chain of LRRK2(G2019S) (Q5S007 970-2527 G2019S limits assumed): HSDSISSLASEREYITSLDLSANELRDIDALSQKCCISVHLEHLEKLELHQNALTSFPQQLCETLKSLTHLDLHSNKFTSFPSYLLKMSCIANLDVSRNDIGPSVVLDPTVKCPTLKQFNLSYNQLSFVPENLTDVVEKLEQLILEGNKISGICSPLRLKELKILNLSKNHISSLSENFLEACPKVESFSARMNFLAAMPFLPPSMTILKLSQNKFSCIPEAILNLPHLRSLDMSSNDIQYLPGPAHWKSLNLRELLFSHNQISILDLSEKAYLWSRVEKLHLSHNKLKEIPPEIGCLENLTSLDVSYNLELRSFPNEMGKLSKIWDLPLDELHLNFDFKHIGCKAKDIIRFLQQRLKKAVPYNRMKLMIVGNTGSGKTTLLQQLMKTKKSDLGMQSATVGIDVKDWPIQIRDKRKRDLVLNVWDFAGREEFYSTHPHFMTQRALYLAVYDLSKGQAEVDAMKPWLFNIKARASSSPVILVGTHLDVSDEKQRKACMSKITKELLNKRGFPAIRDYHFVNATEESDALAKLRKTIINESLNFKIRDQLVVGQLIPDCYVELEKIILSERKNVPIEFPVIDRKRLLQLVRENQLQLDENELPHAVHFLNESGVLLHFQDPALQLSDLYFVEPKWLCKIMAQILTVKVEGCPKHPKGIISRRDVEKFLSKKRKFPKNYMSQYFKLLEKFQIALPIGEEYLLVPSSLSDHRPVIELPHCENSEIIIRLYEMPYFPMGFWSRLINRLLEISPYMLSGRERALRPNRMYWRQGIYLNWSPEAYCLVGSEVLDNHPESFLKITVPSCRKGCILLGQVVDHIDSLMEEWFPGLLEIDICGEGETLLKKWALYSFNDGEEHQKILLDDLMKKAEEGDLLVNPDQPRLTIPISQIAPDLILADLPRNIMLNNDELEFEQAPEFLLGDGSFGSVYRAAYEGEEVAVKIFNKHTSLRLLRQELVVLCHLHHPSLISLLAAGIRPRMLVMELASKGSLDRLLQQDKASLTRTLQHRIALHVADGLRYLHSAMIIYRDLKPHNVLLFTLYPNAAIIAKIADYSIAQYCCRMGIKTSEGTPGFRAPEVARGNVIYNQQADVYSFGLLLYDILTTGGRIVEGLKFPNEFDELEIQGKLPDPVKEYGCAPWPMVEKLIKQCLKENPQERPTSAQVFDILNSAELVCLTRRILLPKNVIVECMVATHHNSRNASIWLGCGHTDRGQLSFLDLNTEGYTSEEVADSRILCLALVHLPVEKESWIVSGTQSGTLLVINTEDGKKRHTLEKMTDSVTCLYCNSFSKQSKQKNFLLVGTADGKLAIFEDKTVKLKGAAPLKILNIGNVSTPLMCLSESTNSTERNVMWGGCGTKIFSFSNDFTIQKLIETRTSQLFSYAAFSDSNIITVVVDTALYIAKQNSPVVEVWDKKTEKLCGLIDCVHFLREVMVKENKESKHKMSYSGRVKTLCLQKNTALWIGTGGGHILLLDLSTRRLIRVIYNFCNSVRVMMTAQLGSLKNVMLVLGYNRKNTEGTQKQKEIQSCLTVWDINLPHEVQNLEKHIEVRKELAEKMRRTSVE
T1 sequence (Q5S007 970-2527 limits assumed): as the sequence (Q5S007 970-2527 G2019S limits assumed) above, with S1050G counted along it

As to `CNc1c(-c2cnn(C(C)(C)C#N)c2)cnc2[nH]ccc12` [Compound 1, 2-methyl-2-(4-(4-(methylamino)-1H-pyrrolo[2,3-b]pyridin-5-yl)-1H-pyrazol-1-yl)propanenitrile], the IC50 on LRRK2 WT enzyme was 544 nM; on LRRK2(G2019S) it was 326 nM.
For `CNc1c(-c2cnn(C3CCN(C)CC3)c2)cnc2[nH]ccc12` [Compound 2, N-methyl-5-(1-(1-methylpiperidin-4-yl)-1H-pyrazol-4-yl)-1H-pyrrolo[2,3-b]pyridin-4-amine] the same measures were 891 nM and 825 nM.
For `CNc1c(-c2cnn(C3CCOCC3)c2)cnc2[nH]ccc12` [Compound 3, N-methyl-5-(1-(tetrahydro-2H-pyran-4-yl)-1H-pyrazol-4-yl)-1H-pyrrolo[2,3-b]pyridin-4-amine] the same measures were 264 nM and 164 nM.
Taken in the same sequence, the figures for `CNc1c(-c2cnn(C(C)(C)C#N)c2)cnc2[nH]cc(Cl)c12` [Compound 4, 2-(4-(3-chloro-4-(methylamino)-1H-pyrrolo[2,3-b]pyridin-5-yl)-1H-pyrazol-1-yl)-2-methylpropanenitrile] were 15 nM and 14 nM.
For the compound `CNc1c(-c2cnn(C3CCN(C)CC3)c2)cnc2[nH]cc(Cl)c12` [Compound 5, 3-chloro-N-methyl-5-(1-(1-methylpiperidin-4-yl)-1H-pyrazol-4-yl)-1H-pyrrolo[2,3-b]pyridin-4-amine], the results for the IC50 at LRRK2 WT enzyme and on LRRK2(G2019S) were 22 nM and 20 nM, respectively.
Taken in the same sequence, the figures for `CNc1c(-c2cnn(C3CCOCC3)c2)cnc2[nH]cc(Cl)c12` [Compound 6, 3-chloro-N-methyl-5-(1-(tetrahydro-2H-pyran-4-yl)-1H-pyrazol-4-yl)-1H-pyrrolo[2,3-b]pyridin-4-amine] were 10 nM and 15 nM.
For `CNc1c(C(F)(F)F)cnc2[nH]cc(-c3cnn(C(C)(C)C#N)c3)c12` [Compound 7, 2-methyl-2-(4-(4-(methylamino)-5-(trifluoromethyl)-1H-pyrrolo[2,3-b]pyridin-3-yl)-1H-pyrazol-1-yl)propanenitrile] the same measures were 38 nM and 26 nM.
For `CNc1c(C(F)(F)F)cnc2[nH]cc(-c3cnn(C4CCN(C)CC4)c3)c12` [Compound 8, N-methyl-3-(1-(1-methylpiperidin-4-yl)-1H-pyrazol-4-yl)-5-(trifluoromethyl)-1H-pyrrolo[2,3-b]pyridin-4-amine] the same measures were 103 nM and 61 nM.
For `CCc1cc(-c2cnc3[nH]cc(Cl)c3c2NC)nn1C` [Compound 9, 3-chloro-5-(5-ethyl-1-methyl-1H-pyrazol-3-yl)-N-methyl-1H-pyrrolo[2,3-b]pyridin-4-amine], the half-inhibitory concentration (IC50) stood at 36.6 nM at LRRK2 WT enzyme and 83.1 nM at LRRK2(G2019S).
Taken in the same sequence, the figures for `CCc1cc(-c2cnc3[nH]cc(Cl)c3c2NC(C)C)nn1C` [Compound 10, 3-chloro-5-(5-ethyl-1-methyl-1H-pyrazol-3-yl)-N-isopropyl-1H-pyrrolo[2,3-b]pyridin-4-amine] were 259 nM and 523 nM.
Taken in the same sequence, the figures for `CNc1c(-c2ccn(C)n2)cnc2[nH]cc(Cl)c12` [Compound 11, 3-chloro-N-methyl-5-(1-methyl-1H-pyrazol-3-yl)-1H-pyrrolo[2,3-b]pyridin-4-amine] were 8.4 nM and 30.9 nM.
For `CC(C)Nc1c(-c2ccn(C)n2)cnc2[nH]cc(Cl)c12` [Compound 12, 3-chloro-N-isopropyl-5-(1-methyl-1H-pyrazol-3-yl)-1H-pyrrolo[2,3-b]pyridin-4-amine] the same measures were 136 nM and 514 nM.
With `CNc1c(-c2cn(C3CCOCC3)nc2C2CC2)cnc2[nH]cc(Cl)c12` [Compound 13, 3-chloro-5-(3-cyclopropyl-1-(tetrahydro-2H-pyran-4-yl)-1H-pyrazol-4-yl)-N-methyl-1H-pyrrolo[2,3-b]pyridin-4-amine], the half-inhibitory concentration (IC50) on LRRK2 WT enzyme was 3600 nM; at LRRK2(G2019S), greater than 10000 nM.
For `CNc1c(-c2nn(C)c3ccc(C#N)cc23)cnc2[nH]cc(Cl)c12` [Compound 14, 3-(3-chloro-4-(methylamino)-1H-pyrrolo[2,3-b]pyridin-5-yl)-1-methyl-1H-indazole-5-carbonitrile] the same measures were 95.2 nM and 305 nM.
Taken in the same sequence, the figures for `CNc1c(-c2nn(C)c3ccc(OC)cc23)cnc2[nH]cc(Cl)c12` [Compound 15, 3-(3-chloro-4-(methylamino)-1H-pyrrolo[2,3-b]pyridin-5-yl)-5-methoxy-1-methyl-1H-indazole] were 140 nM and 397 nM.
For `CNc1c(-c2c3cc(OC)ccc3nn2C)cnc2[nH]cc(Cl)c12` [Compound 16, 3-chloro-5-(5-methoxy-2-methyl-2H-indazol-3-yl)-N-methyl-1H-pyrrolo[2,3-b]pyridin-4-amine] the same measures were 6230 nM and greater than 10000 nM.
On to `F[C@H]1CN(C2COC2)CC[C@@H]1n1cc(-c2cnc3[nH]ccc3c2NC2CCCC2)cn1` [Compound 31, N-cyclopentyl-5-(1-((3S,4S)-3-fluoro-1-(oxetan-3-yl)piperidin-4-yl)-1H-pyrazol-4-yl)-1H-pyrrolo[2,3-b]pyridin-4-amine], for which the pIC50 on LRRK2 WT enzyme and at LRRK2(G2019S) was 7.00 to 8.00 in each case.
Consider `CC(=O)N1CC[C@H](n2cc(-c3cnc4[nH]ccc4c3NC3CCCC3)cn2)[C@@H](F)C1` [Compound 38, 1-((3S,4S)-4-(4-(4-(cyclopentylamino)-1H-pyrrolo[2,3-b]pyridin-5-yl)-1H-pyrazol-1-yl)-3-fluoropiperidin-1-yl)ethan-1-one], for which the pIC50 on LRRK2 WT enzyme and at LRRK2(G2019S) was 7.00 to 8.00 each time.
As for `CC(C)Nc1c(-c2ccc(C(=O)N3CCOCC3)cc2)cnc2[nH]ccc12` [Compound 48, (4-(4-(isopropylamino)-1H-pyrrolo[2,3-b]pyridin-5-yl)phenyl)(morpholino)methanone], the pIC50 on LRRK2 WT enzyme and at LRRK2(G2019S) was 7.00 to 8.00 each time.
As to `CC(C)Nc1c(-c2ccc(C(=O)N3CCC(N4CCOCC4)CC3)cc2)cnc2[nH]ccc12` [Compound 54, (4-(4-(isopropylamino)-1H-pyrrolo[2,3-b]pyridin-5-yl)phenyl)(4-morpholinopiperidin-1-yl)methanone], the pIC50 on LRRK2 WT enzyme and at LRRK2(G2019S) was 7.00 to 8.00 in each case.
As to `CNc1c(-c2cnn([C@H]3CCN(C4COC4)C[C@@H]3F)c2)cnc2[nH]cc(Cl)c12` [Compound 70, 3-chloro-5-(1-((3S,4S)-3-fluoro-1-(oxetan-3-yl)piperidin-4-yl)-1H-pyrazol-4-yl)-N-methyl-1H-pyrrolo[2,3-b]pyridin-4-amine], the pIC50 on LRRK2 WT enzyme and on LRRK2(G2019S) was 7.00 to 8.00 in each case.
With `CCNc1c(-c2cnn([C@H]3CCN(C(C)=O)C[C@@H]3F)c2)cnc2[nH]cc(Cl)c12` [Compound 78, 1-((3S,4S)-4-(4-(3-chloro-4-(ethylamino)-1H-pyrrolo[2,3-b]pyridin-5-yl)-1H-pyrazol-1-yl)-3-fluoropiperidin-1-yl)ethan-1-one], the pIC50 on LRRK2 WT enzyme and at LRRK2(G2019S) was 7.00 to 8.00 throughout.
On to `COCCNc1c(-c2cnn([C@H]3CCN(C(C)=O)C[C@@H]3F)c2)cnc2[nH]cc(Cl)c12` [Compound 81, 1-((3S,4S)-4-(4-(3-chloro-4-((2-methoxyethyl)amino)-1H-pyrrolo[2,3-b]pyridin-5-yl)-1H-pyrazol-1-yl)-3-fluoropiperidin-1-yl)ethan-1-one], for which the values for the pIC50 at LRRK2 WT enzyme and at LRRK2(G2019S) were 7.00 to 8.00 and less than 7.00, respectively.
For `CNc1c(-c2ccc(C(=O)N3CCOCC3)cc2)cnc2[nH]cc(Cl)c12` [Compound 90, (4-(3-chloro-4-(methylamino)-1H-pyrrolo[2,3-b]pyridin-5-yl)phenyl)(morpholino)methanone] the same measures were greater than 8.00 and greater than 8.00.
Taken in the same sequence, the figures for `CCNc1c(-c2ccc(C(=O)N3CCOCC3)cc2)cnc2[nH]cc(Cl)c12` [Compound 91, (4-(3-chloro-4-(ethylamino)-1H-pyrrolo[2,3-b]pyridin-5-yl)phenyl)(morpholino)methanone] were 7.00 to 8.00 and 7.00 to 8.00.
With `O=C(c1ccc(-c2cnc3[nH]cc(Cl)c3c2NC2CC2)cc1)N1CCOCC1` [Compound 93, (4-(3-chloro-4-(cyclopropylamino)-1H-pyrrolo[2,3-b]pyridin-5-yl)phenyl)(morpholino)methanone], the pIC50 at LRRK2 WT enzyme and on LRRK2(G2019S) was 7.00 to 8.00 throughout.
Turning to `CCNc1c(-c2ccc(C(=O)N3CCC(N4CCOCC4)CC3)cc2)cnc2[nH]cc(Cl)c12` [Compound 97, (4-(3-chloro-4-(ethylamino)-1H-pyrrolo[2,3-b]pyridin-5-yl)phenyl)(4-morpholinopiperidin-1-yl)methanone], the pIC50 on LRRK2 WT enzyme was greater than 8.00; on LRRK2(G2019S), 7.00 to 8.00.
